Key:
Format in all cases: in vivo
[1] = tested on: diarrhea caused by a chemotherapeutic agent in Balb/c mice; test: Examples 343-381 (Table 6): oral versus intravenous CDK inhibitor, relief of diarrhea caused by a chemotherapeutic agent;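 also: percent of treated mice whose diarrhea grade fell below chemotherapy-group average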
In short: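 Balb/c mice (10 per group) received the CDK inhibitor orally or by tail-vein injection, or vehicle, followed by a chemotherapeutic agent or its solvent. Diarrhea grade was scored daily.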

[2] = tested on: diarrhea caused by the continuous administration of a chemotherapeutic agent in Balb/c mice; test: Examples 444-469 (Table 9): oral CDK inhibitor, diarrhea caused by continuous administration of a chemotherapeutic agent; conditions: CDK inhibitor oral 150 mg/kg once a day
Excerpt: (§1) Balb/c mice were fed for 1 week, and then divided into groups. The experiment was divided into a control group, a chemotherapeutic agent group, and a CDK inhibitor group, each of which comprised 10 mice, to perform the administration experiment, for which the administration dosage, mode, time and frequency were shown in Table 9. The control group: being intragastrically administered with the same solvent as that used in the CDK inhibitor group (the time was shown in Table 9), and then being injected/intragastrically administered with the same solvent as that used in the chemotherapeutic agent group (the administration mode was shown in Table 9): the chemotherapeutic agent group: being intragastrically administered with the same solvent as that used in the CDK inhibitor group (the time was shown in Table 9), and then being injected/intragastrically administered with the chemotherapeutic agent (the type, administration mode, dosage and duration time were shown in Table 9): the CDK inhibitor group: being intragastrically administered with the CDK inhibitor (the time was shown in Table 9), and then being administered with the chemotherapeutic agent (the type, administration mode, dosage and duration time were shown in Table 9).
The scoring of diarrhea can refer to the method of Akinobu Kurita (Cancer Chemother Pharmacol 2000: 46:211-20.), Grade 0: normal feces: Grade 1: mild diarrhea, the stools is slightly wet and soft: Grade 2: moderate diarrhea, loose stools and mild perianal contamination: Grade 3: severe diarrhea, watery stools and accompanied by severe perianal staining (see FIG. 1). It is regarded as effective remission when the diarrhea grading of mice in the CDK inhibitor group is reduced compared with the average diarrhea grading of mice in the chemotherapeutic agent group.
The diarrhea grading of mice was observed and recorded every day. At the end of the experiment, the number of mice in the CDK inhibitor group whose diarrhea grading was lower than that of mice in the chemotherapeutic agent group was recorded. Table 9 lists various animal experiment combinations of chemotherapeutic agents and CDK inhibitors, as well as the corresponding experimental results. (Relative remission rate %=the number of mice in the CDK inhibitor group whose diarrhea has been effectively relieved/the total number of mice in the CDK inhibitor group*100%. The establishment rate of diarrhea model in the chemotherapeutic agent group was 50%-80%, that is, about 5-8 of 10 mice developed diarrhea during the experiment, and there were cases of individual mice death or not developing diarrhea.)

[3] = tested on: constipation caused by the continuous administration of a chemotherapeutic agent in Balb/c mice; test: Examples 470-481 (Table 10): oral CDK inhibitor, constipation caused by continuous administration of a chemotherapeutic agent; conditions: Fluorouracil (5-Fu) intraperitoneal injection 100 mg/kg once a day
Excerpt: as §1, with “10.” for “9.”, “10),” for “9),”, “10):” for “9):”, “10).” for “9).”
The feces reduction rate was calculated with reference to the method of Ji Eun Kim (Lab Anim Res. 2016 December: 32(4): 231-240.). Feces reduction rate (%)=(the control group−the chemotherapeutic agent group or the CDK inhibitor group)/the control group*100%
It is regarded as effective remission when the feces reduction rate of mice in the CDK inhibitor group is reduced compared with that in the chemotherapeutic agent group.
The feces amount of mice within 3 hours was observed and recorded every day. At the end of the experiment, the number of mice in the CDK inhibitor group whose feces reduction rate was lower than that of mice in the chemotherapeutic agent group was recorded. Table 10 lists various animal experiment combinations of chemotherapeutic agents and CDK inhibitors, as well as the corresponding experimental results.

CC(=O)c1c(C)c2cnc(Nc3ccc(N4CCNCC4)cn3)nc2n(C2CCCC2)c1=O [Palbociclib]
Relative remission rate ([1]; Example 343, Etoposide intravenous injection 75 mg/kg single, CDK inhibitor intravenous injection 150 mg/kg single, 0.5 h before chemotherapeutic agent, cycle 8 days): 10% | Relative remission rate ([1]; Example 343, Etoposide intravenous injection 75 mg/kg single, CDK inhibitor oral 150 mg/kg single, 0.5 h before chemotherapeutic agent, cycle 8 days): 40% | Relative remission rate ([1]; Example 344, Etoposide intravenous injection 75 mg/kg single, CDK inhibitor intravenous injection 150 mg/kg single, 4 h before, cycle 8 days): 10% | Relative remission rate ([1]; Example 344, Etoposide intravenous injection 75 mg/kg single, CDK inhibitor oral 150 mg/kg single, 4 h before, cycle 8 days): 80% | Relative remission rate ([1]; Example 345, Etoposide intravenous injection 75 mg/kg single, CDK inhibitor intravenous injection 150 mg/kg single, 8 h before, cycle 8 days): 10% | Relative remission rate ([1]; Example 345, Etoposide intravenous injection 75 mg/kg single, CDK inhibitor oral 150 mg/kg single, 8 h before, cycle 8 days): 60% | Relative remission rate ([1]; Example 346, Etoposide intravenous injection 75 mg/kg single, CDK inhibitor intravenous injection 150 mg/kg single, 12 h before, cycle 8 days): 20% | Relative remission rate ([1]; Example 346, Etoposide intravenous injection 75 mg/kg single, CDK inhibitor oral 150 mg/kg single, 12 h before, cycle 8 days): 60% | Relative remission rate ([1]; Example 347, Etoposide intravenous injection 75 mg/kg single, CDK inhibitor intravenous injection 150 mg/kg single, 24 h before, cycle 8 days): 10% | Relative remission rate ([1]; Example 347, Etoposide intravenous injection 75 mg/kg single, CDK inhibitor oral 150 mg/kg single, 24 h before, cycle 8 days): 60% | Relative remission rate ([1]; Example 357, Etoposide and cisplatin intravenous injection 50 (E) 5 (Cis) mg/kg single, CDK inhibitor intravenous injection 125 mg/kg single, 4 h before, cycle 7 days): 20% | Relative remission rate ([1]; Example 357, Etoposide and cisplatin intravenous injection 50 (E) 5 (Cis) mg/kg single, CDK inhibitor oral 125 mg/kg single, 4 h before, cycle 7 days): 70% | Relative remission rate ([1]; Example 358, Etoposide and cisplatin intravenous injection 50 (E) 5 (Cis) mg/kg single, CDK inhibitor intravenous injection 125 mg/kg single, 24 h before, cycle 7 days): 10% | Relative remission rate ([1]; Example 358, Etoposide and cisplatin intravenous injection 50 (E) 5 (Cis) mg/kg single, CDK inhibitor oral 125 mg/kg single, 24 h before, cycle 7 days): 40% | Relative remission rate ([1]; Example 366, Carboplatin (CBP) oral administration 200 mg/kg single, CDK inhibitor intravenous injection 150 mg/kg single, 24 h before, cycle 10 days): 10% | Relative remission rate ([1]; Example 366, Carboplatin (CBP) oral administration 200 mg/kg single, CDK inhibitor oral 150 mg/kg single, 24 h before, cycle 10 days): 50% | Relative remission rate ([1]; Example 378, Gemcitabine (GEM) intravenous injection 120 mg/kg single, CDK inhibitor intravenous injection 200 mg/kg single, 12 h before, cycle 8 days): 10% | Relative remission rate ([1]; Example 378, Gemcitabine (GEM) intravenous injection 120 mg/kg single, CDK inhibitor oral 200 mg/kg single, 12 h before, cycle 8 days): 50% | Relative remission rate ([1]; Example 379, Gemcitabine (GEM) intravenous injection 120 mg/kg single, CDK inhibitor intravenous injection 200 mg/kg single, 12 h before, cycle 8 days): 20% | Relative remission rate ([1]; Example 379, Gemcitabine (GEM) intravenous injection 120 mg/kg single, CDK inhibitor oral 200 mg/kg single, 12 h before, cycle 8 days): 60% | Relative remission rate ([2]; Examples 444-447 (one value printed; 4 h, 6 h, 8 h, 12 h before), Fluorouracil (5-Fu) intraperitoneal injection 70 mg/kg once a day, for 3 days, for 3 days, cycle 10 days): 70% | Relative remission rate ([2]; Examples 448-451 (one value printed; 4 h, 6 h, 8 h, 12 h before), Fluorouracil (5-Fu) intraperitoneal injection 70 mg/kg once a day, for 5 days, for 5 days, cycle 9 days): 60% | Relative remission rate ([2]; Examples 462-465 (one value given; 2 h, 4 h, 6 h, 8 h before), Capecitabine oral administration 1000 mg/kg (printed 100/0 wrapped) once a day, for 7 days, for 7 days, cycle 14 days): 0% | Relative remission rate ([2]; Examples 466-469 (one value given; 2 h, 4 h, 6 h, 8 h before), Capecitabine oral administration 1000 mg/kg (printed 100/0 wrapped) once a day, for 14 days, for 14 days, cycle 14 days): 10% | Remission rate ([3]; Examples 470-473 (one value given; 2 h, 4 h, 6 h, 8 h before), for 3 days, CDK inhibitor oral 150 mg/kg once a day, for 3 days, cycle 10 days): 40% | Remission rate ([3]; Examples 474-477 (one value given; 2 h, 4 h, 6 h, 8 h before), for 5 days, CDK inhibitor oral 125 mg/kg once a day, for 5 days, cycle 9 days): 50% | Remission rate ([3]; Examples 478-481 (one value given; 2 h, 4 h, 6 h, 8 h before), for 7 days, CDK inhibitor oral 125 mg/kg once a day, for 7 days, cycle 10 days): 10%

— US20240293413A1, “COMPOUND AND METHOD FOR TREATING CHEMOTHERAPY-RELATED GASTROINTESTINAL SIDE EFFECTS” (ONQUALITY PHARMACEUTICALS CHINA LTD., priority 2021, published 2024)
